Data on one compound can be found in patent US20190030114A1, “ISOFORM-SPECIFIC CALPAIN INHIBITORS, METHODS OF IDENTIFICATION, AND USES THEREOF” (WESTERN UNIVERSITY OF HEALTH SCIENCES, priority 2014, published 2019).

Data set [1] relates to cortical neuronal cultures (14 DIV). Put plainly: neuronal death mediated by extrasynaptic NMDA receptor activation. It is filed as cell-based. To be noted: dose-dependent from 200 nM to 5 μM. How it is done: Results are expressed as percent of neurons positively stained with the Hoechst reagent and are means±S.E.M. of 3-4 experiments (*p<0.01, Student's t-test).
A selective calpain-2 inhibitor blocks neuronal death mediated by extrasynaptic NMDA receptor activation. Cortical neuronal cultures (14 DIV) were treated to induce selective activation of extrasynaptic NMDA receptors, which results in neuronal cell death.

The subject of data set [2] is retina (GCL, RGC), vision. Briefly: acute IOP elevation, intravitreal C2l: GCL cell death, OKR visual acuity, RGC density. How it is done: FIG. 12C: H&E staining in retinal sections of WT mice after IOP elevation and intravitreal injection of vehicle or C2l. Vehicle or C2l (20 μM, 1 μI) was injected 2 h after IOP elevation or sham surgery. Eyes were collected 3 days after surgery for H&E staining. Scale bar=30 μm.
FIG. 12D: Quantification of GCL cell numbers, based on H&E stains, as described in FIG. 12C.
FIG. 12F: OKR spatial frequency thresholds of eyes measured 3 days after IOP elevation or sham surgery. Vehicle or C2l (20 μM, 1 μI) was injected intravitreally 2 h after surgery. Surgery and injection were always performed in the right eye (OD). OKR of the Left eye (OS) was measured as control.
One-way ANOVA followed by Bonferroni test.
FIG. 12H: RGC density in the retina of the eyes at 21 days after surgery, as described in FIG. 12F. Eyes were collected after OKR test 21 days after surgery. Brn-3a immunostaining was performed in retinal sections of the eyes. Brn-3a-positive cells in GCL were counted.
We used intravitreal C2l injection in order to locally deliver C2l to retina. First, we tested the delivery efficiency by injecting different doses of C2l intravitreally 2 h after IOP elevation in calpain-1 KO mice and analyzing SBDP levels in IPL at 4 h (FIG. 12A and B). […] In all subsequent experiments, 20 μM (1 μl) was used to examine the neuroprotective effects of intravitreal C2l injection. Eyes were collected 3 days after surgery for H&E staining.
To examine vision of mice after glaucoma, we tested the optokinetic reflex (OKR) in mice (FIG. 15A). OKR is the saccadic eye movement triggered by the movement of gratings in front of the mouse eye. Changing the frequency of gratings and determining the […] frequency triggering OKR, allows analyzing visual acuity of each eye. Acute IOP elevation or sham surgery was performed in the right eye (OD). Left eye (OS) served as a naive control. Intravitreal C2l or vehicle injection was performed 2 h after surgery. Three and 21 days after surgery, OKR was determined in both eyes (FIG. 5f,g). […] Mice were sacrificed after OKR test at day 21 and RGC densities were analyzed with brn-3a immunostaining in retinal sections (FIG. 12H).

Data set [3] deals with field CA1 in acute hippocampal slices from male UBEA mutant mice. Put plainly: field EPSP recording, LTP in hippocampal slices from UBEA mutant mice (Angelman Syndrome model). To be noted: 200 nM. In kind it is cell-based. As to the method: FIG. 4: Field recording of excitatory postsynaptic potentials (EPSPs) performed in stratum radiatum of field CA1 in acute hippocampal slices prepared from male UBEA mutant mice (a model of Angelman Syndrome) or their wild-type littermates in the presence or absence of 200 nM of the calpain-2 selective inhibitor, Formula I (mCalp-I in the drawing). Results are expressed as percent of the average values over a 10 min baseline period and are means±S.E.M. of the indicated number of experiments.
A calpain 2-specific inhibitor rescues LTP impairment in hippocampal slices from a mouse model of Angelman Syndrome. Field recording of excitatory postsynaptic potentials (EPSPs) was performed in stratum radiatum of field CA1 in acute hippocampal slices prepared from male UBEA mutant mice or their wild-type littermates.

Data set [4] concerns learning and memory. Briefly: fear conditioning protocol. To be noted: various doses i.p. 30 min before training. It is filed as in vivo, mice. How it is done: (§1) FIG. 7A: Effects of an calpain-2 selective inhibitor on fear conditioning. […] Various doses of the compound of Formula I (m-CalpI in the drawing) were injected i.p. 30 min before training to learn the association between a context or a tone with a painful stimulus. Animals were tested 24 h later for their fear responses to the context, and memory strength was quantified by the amount of time mice freeze (their biological response to fear). The ratio between the doses producing enhancement and decrease matches the ratio between the Kis to inhibit calpain-2 and calpain-1. […] Results are means±S.E.M. of 8-10 experiments. *p<0.05 (ANOVA followed by Bonferroni post-test).
as §1, with “7B:” for “7A:”, “1 (m-CalpI)” for “I (m-CalpI in the drawing)”, “48” for “24”, “tone,” for “context,”
Formula 1 Enhances Memory. […] In this protocol, mice were trained to learn the association between a context or a tone with a painful stimulus. Various doses of the compound of Formula 1 (mCalp-I) were injected i.p. 30 min before training. Animals were tested 24 h later in the context (FIG. 7A) and 48 h later with the tone (FIG. 7B). When tested 24 h or 48 h later for their fear responses to either the context or the tone, memory strength was quantified by the amount of time mice freeze (their biological response to fear). The ratio between the doses producing enhancement and decrease matches the ratio between the Kis to inhibit calpain-2 and calpain-1. […] Results are means±S.E.M. of 8-10 experiments. *p<0.05 (ANOVA followed by Bonferroni post-test).

For the compound `CCC(NC(=O)C(CC(C)C)NC(=O)OCc1ccccc1)C(=O)C(=O)NCc1cc(OC)cc(OC)c1` (racemic) [Formula 1, Z-Leu-Abu-CONH—CH2-C6H3 (3, 5-(OMe)2)], the “neuronal cell death associated with extrasynaptic NMDA receptor activation” value in data set [1] is “reduced the neuronal cell death”. The “neuronal cell death associated with extrasynaptic NMDA receptor activation” value in data set [1] (listed as Formula I) was “reduced neuronal cell death”. In addition, the “RGC counts (H&E), IOP-elevated eyes” value in data set [2] (20 μM (1 μl) intravitreal 2 h after IOP elevation, 3 days) was 101.3±9.2 cells/mm. Further, the “Survival rate in GCL” value in data set [2] (20 μM (1 μl) intravitreal 2 h after IOP elevation, vehicle 47.2±5.4%) is recorded as 80.8±8.4%. Besides, in data set [2] (20 μM (1 μl) intravitreal 2 h after surgery, 3 days), the “RGC counts (H&E), sham eye” value is 128.1±7.2 cells/mm. For the same compound, the “RGC densities (brn-3a) in IOP elevated eyes” value in data set [2] (day 21) is “recovered”. Moreover, the “visual acuity (OKR) after increased IOP” value in data set [2] (intravitreal 2 h after surgery, day 3 and day 21) is given as “significantly improved”. In data set [2] (intravitreal injection in the sham eye), the “visual acuity (OKR) of sham eye versus vehicle” value is listed as “did not affect visual acuity”. In data set [3], the “LTP magnitude in slices from UBEA mutant mice” value is “restored LTP magnitude to the level found in slices from wild-type mice” and the “initial increase in fEPSP elicited by TBS” value is “no effect”. Also, in data set [4] (context 24 h, tone 48 h), the “effect on learning and memory in the fear conditioning protocol” value is listed as “biphasic effect”. Further, the “effect on learning and memory, fear response to the context” value in data set [4] (tested 24 h later) is recorded as “biphasic effect”. The “effect on learning and memory, fear response to the tone” value in data set [4] (tested 48 h later) is listed as “biphasic effect”.
